Values quoted from earlier work in US12201667B2, “Formulations for treating cramps and spasms” (LYTONE ENTERPRISE, INC., priority 2020, dated 2025).

Conditions: background statement

C=C[C@H]1C[N@@]2CC[C@H]1C[C@H]2[C@H](O)c1ccnc2ccc(OC)cc12 [quinine, Quinine]
reduction of cramp frequency: about a quarter
